Where two headings read alike, the source gives them in different places.
Columns and labels:
[1] = system: MDA-MB-231 cells; assay: Immune cell killing (sensitization to PBMC-derived LAK); assay type: cell-based, human; details: pre-treated 24 hours: BCI-215 3 μM, cisplatin 2 μM, doxorubicin 400 nM
Description: Peripheral blood mononuclear cells were obtained from healthy volunteers with an established IRB approved protocol, separated from heparinized blood on Ficoll-hypaque (GE Healthcare, Chicago) gradients as previously reported (16). Cells were cultured in RPMI 1640 supplemented with 10% FCS, 1% glutamine, 1% penicillin/streptomycin, and stimulated with 6,000 IU of Interleukin 2 for 24 hours. After incubation, cells were washed with PBS and counted. In parallel, MBA-MB-231 cells were pre-treated in a 384 well plate with vehicle or BCI-215 (3 μM). After 24 hours in culture, medium was replaced and PBMC added in two-fold serial dilutions starting with a 50-fold excess of PBMCs in triplicate. After 24 hours of co-culture, cells were fixed with formaldehyde/Hoechst 33342, washed twice with PBS, and imaged on the ArrayScan II. Cancer cells were identified by their larger nuclei compared with PBMC, setting a size gate in the DAPI channel. In experiments with chemotherapeutics, cells carrying a biosensor consisting of a mitochondrial targeting sequence derived from cytochrome c oxidase VIII linked to GFP that is a surrogate for cytochrome c release from mitochondria (17) were pre-treated for 24 hours with cisplatin (2 μM) or doxorubicin (400 nM), exposed to LAK as above, and cancer cells identified and quantified by green fluorescence. Cell densities were normalized to those in the absence of PBMCs. Mean cell densities from multiple independent experiments were averaged and plotted in GraphPad Prism.

[2] = system: cellular MAPK activity; details: literature value; cited from earlier work
[3] = system: MDA-MB-231 cells; assay: Toxicity reversal (rescue from BCI-215 toxicity by MAPK inhibitors); assay type: cell-based, human; details: MAPK inhibitor pre-incubation, then BCI-215 25 μM, 24 hours
Description: Cells were pre-treated (30 min for SCH772984, SP600125, SB203580, and 3 hours for JNK-IN-8) with identical concentration gradients of MAPK inhibitors on the right and left halves of a 384 well microplate. After preincubation, half of the microplate was treated with vehicle (DMSO), the other with a pro-apoptotic concentration of BCI-215 (25 μM). To eliminate potential bias through plate/edge effects, an independent plate was prepared in parallel where vehicle and BCI-215 treatments were reversed. Twenty-four hours thereafter, plates were stained with Hoechst 33342, washed once, and imaged on the ArrayScan II using a 10× objective for analysis for cell numbers and nuclear morphology. Plates were subsequently immunostained with a cleaved caspase-3/Cy5-conjugated secondary antibody pair and analyzed for apoptosis on an ArrayScan VTI using a 20×0.75 NA objective. Four independent readouts were extracted and correlated: cell density (SelectedObjectCountPerValidField), nuclear condensation (MEAN_ObjectAvgIntenCh1), nucleus rounding (MEAN_ObjectShapeLWRCh1), and average cellular cleaved caspase-3 intensity (MEAN_AvgIntenCh2). For each parameter, data were normalized to vehicle (maximum rescue) and BCI-215 (no rescue) as % rescue=1−((data point−DMSO)/(DMSO-BCI-215))*100.

[4] = system: rat hepatocytes; assay: Hepatocyte mitochondrial function (TMRE staining); assay type: cell-based
Description: (§1) Rat hepatocytes were isolated using standard two step collagenase digestion (15) and sub-cultivated at 14,000 hepatocytes/well in collagen-1 coated 384 well plates in Williams E Medium supplemented with 10% FBS, 2 mM L-glutamine and 50 U/ml Penicillin and streptomycin. After 4 hours, medium was decanted and replaced with Hepatocyte Maintenance Media (Williams E supplemented with 1.25 mg/ml bovine serum albumin, 6.25 μg/ml human insulin, 100 nM dexamethasone, 6.25 μg/ml human transferrin, 6.25 ng/ml selenous acid, 2 mM L-glutamine, 15 mM HEPES, 100 U/mL penicillin, and 100 U/mL streptomycin). After overnight culture, cells were treated with concentration gradients of test agents. One hour after compound addition, cells were labeled with 200 nM TMRE and 4 μg/ml Hoechst 33342 for 45 min, imaged live on an ArrayScan VTI using a 10× objective, and images were analyzed with the Compartmental Bioapplication. Mitochondria were identified as cytosolic spots by size and brightness. The final parameter was % HIGH RingSpotAvgIntenCh2 (i.e., percentage of cells with TMRE puncta in the cytoplasm based on a threshold set with vehicle treated cells).

[5] = system: rat hepatocytes; assay: Five-day hepatocyte toxicity (PI positive cells); assay type: cell-based
Description: as §1
A gelling solution of 1.25 mg/ml rat tail collagen type I in pH 7.2 90:10 (v/v) Williams E media/10×HBSS was overlaid onto the rat hepatocytes. The collagen gel was incubated for 1 hour at 37° C., 5% CO2. The collagen sandwich cultures were then challenged for 5 days to test compounds in Hepatocyte Maintenance Media, without refeeding. A 10× solution of 40 μg/ml Hoechst 33342 was added during the final 2 hours of incubation followed by a 10× solution of 20 μg/ml PI for 1 hour. Cells were imaged and the percentage of PI positive cells calculated as above.

[6] = system: MDA-MB-231 cells; assay: HCA of cell motility and cytotoxicity (Oris Pro 384 cell migration plate); assay type: cell-based, human; details: 48 hours, at antimigratory concentrations
Description: HCA of cell motility and cytotoxicity was performed essentially as described (51). MDA-MB-231 cells (15,000/well) were plated in collagen-coated Oris™ Pro 384-well microplates (Platypus Technologies cat # PRO384CMACCS) containing a chemical exclusion zone that dissolves upon cell seeding. Two hours after plating, medium was removed, and cells treated with ten-point, two-fold concentration gradients of test agents. Forty-eight hours after treatment, cells were stained with 10 μg/ml Hoechst 33342 and 1 μg/ml PI in HBSS for 15 min at 37° C. Plates were washed once with PBS and scanned live on the ArrayScan II using a 5× objective. To capture cells that had entered into the exclusion zone, a single field was acquired in the center of the well and nuclei therein enumerated. To assess changes in cell loss, nuclear size, and necrotic cell death, a second scan was performed that captured one field at the edge of the well (51). Parameters exported and plotted were SelectedObjectCountPerValidField (cell density), MEAN ObjectAreaCh1 (nucleus size), and % RESPONDER MeanAvgIntenCh2 (percent PI positive cells based on based on a threshold set with vehicle treated cells).

[7] = system: MDA-MB-231 cells; assay: Detection and quantitation of ROS in cancer cells (CM-H2-DCFDA); assay type: cell-based, human; details: for EC50: read-out: EC50 of ROS generation
Description: Detection and quantitation of ROS in cancer cells was performed as described before (14). Briefly, MDA-MB-231 cells were labeled with Hoechst 33342, loaded with CM-H2-DCFDA (5 μM, 15 min), and treated with test agents for 10 min. After two washes, cells were analyzed for Hoechst and ROS/FITC fluorescence on the ArrayScan II. Cells were classified as positive for ROS if their average FITC intensity exceeded a threshold defined as the average FITC intensity plus one SD from DMSO-treated wells.

[8] = system: DUSP6/MKP-3 and DUSP1/MKP-1; details: HeLa cells, prior study (12); cited from earlier work
[9] = system: ERK, JNK/SAPK, p38, MEK1 and MKK4/SEK1 phosphorylation; assay: Western blot of MAPK cascade phosphorylation; assay type: cell-based, human; details: MDA-MB-231 cells, 20 μM
[10] = system: patient-derived pre-B acute lymphoblastic leukemia (pre-B-ALL) cells; details: literature (46); cited from earlier work
[11] = system: NCI 60 cell line panel; details: NSC150117, last tested June 2016; cited from earlier work
[12] = system: MDA-MB-231 cells; assay: HCA of apoptosis and ERK phosphorylation (multiparametric: nuclear condensation, caspase-3 cleavage, ERK phosphorylation); assay type: cell-based, human; details: for IC50: Homo sapiens, 24 hours
Description: MDA-MB-231 cells (10,000/well) were treated with identical concentration gradients of test agents on the right and left half of a 384 well microplate for later assessment of potential compound autofluorescence. After 24 hours, cells were fixed, permeabilized with 0.2% Triton X-100, blocked with 1% BSA/PBS, and immunostained with anti-phospho-ERK (E10, CST cat#9106L)/AlexaFluor488 and anti-cleaved caspase-3 (CST cat#9664L)/AlexaFluor594 primary/secondary antibody pairs. Plates were imaged on the ArrayScan II using a 10×0.5NA objective. Each well was background corrected by subtracting mean phospho-ERK and cleaved caspase-3 intensities from wells that had received secondary antibody only. Data in Table 1 are the averages of the indicated numbers of independent experiments, each performed in quadruplicate. IC50, standard error, and 95% confidence intervals were calculated by […] in GraphPad Prism.
Multiple data points were analyzed in GraphPad Prism by one-way ANOVA using Dunnett's multiple comparison test. EC50/IC50 values were obtained from at least three independent experiments by non-linear regression using a four parameter logistic equation. IC50, standard error, and 95% confidence intervals were calculated in GraphPad.

[13] = rat hepatocytes, 5-day exposure

For `COc1cccc2c1C(=O)c1c(O)c3c(c(O)c1C2=O)C[C@@](O)(C(=O)CO)C[C@@H]3O[C@H]1C[C@H](N)[C@H](O)[C@H](C)O1` [doxorubicin], which “sensitization to LAK activity” value [1] is on record?
Its value is “sensitized cells to LAK activity”.

With `Cc1cc(NC(=O)c2cccc(NC(=O)/C=C/CN(C)C)c2)ccc1Nc1nccc(-c2cccnc2)n1` [JNK-IN-8] as the compound, how does the “published concentration reported to inhibit cellular MAPK activity” value [2] read?
The value was 0.5 µM.

What about the “reversal of BCI-215-induced cell loss, nuclear morphology changes and apoptosis” value [3] of the same compound?
Its value is “no effect”.

Which “mitochondrial membrane integrity / potential (TMRE)” value [4] does the source give for `CC1=CC(=O)c2ccccc2C1=O` [menadione] here?
Its value is “loss of mitochondrial membrane integrity”.

And the “hepatocyte toxicity, cell death (PI positive cells)” value (shortened to “hepatocyte toxicity, cell death”) [5]?
Its value is “caused cell death”.

Which results are given for `O=C(Nc1ccc2[nH]nc(-c3ccncc3)c2c1)[C@@H]1CCN(CC(=O)N2CCN(c3ccc(-c4ncccn4)cc3)CC2)C1` [SCH772984]?
published concentration reported to inhibit cellular MAPK activity [2]: 0.03 µM; reversal of BCI-215-induced cell loss, nuclear morphology changes and apoptosis [3]: no effect

With `O=C1C(SCCO)=C(SCCO)C(=O)c2ccccc21` [NSC95397] as the compound, how does the “mitochondrial membrane integrity / potential (TMRE)” value [4] read?
Its value is “loss of mitochondrial membrane integrity”.

What about the “necrosis (% PI positive cells)” value [6] of the same compound?
Its value is “caused necrosis at antimigratory concentrations”.

What about the “hepatocyte toxicity, cell death” value [5, 13] of the same compound?
The value was “caused cell death”.

And the “time to ROS generation” value [7]?
Its value is no more than 30 min.

What about the EC50 [7] of the same compound?
Its EC50 is 3 to 5 µM.

Which results are given for `C[n+]1cc2c3c(ccc2c2ccc4cc5c(cc4c21)OCO5)OCO3` [sanguinarine]?
mitochondrial membrane integrity / potential (TMRE) [4]: loss of mitochondrial membrane integrity; hepatocyte toxicity, cell death (PI positive cells) [5, 13]: caused cell death

For `N.N.[Cl][Pt][Cl]` [cisplatin], which “sensitization to LAK activity” value [1] is on record?
The value was “sensitized cells to LAK activity”.

With `O=C1/C(=C/c2ccccc2)C(NC2CCCCC2)c2ccccc21` (centres unmarked) [BCI, (E)-2-benzylidene-3-(cyclohexylamino)-2,3-dihydro-1H-inden-1-one] as the compound, how does the “mitochondrial membrane integrity / potential (TMRE)” value [4] read?
The value was “did not affect mitochondrial potential”.

What about the “effect on ectopic DUSP6/MKP-3 and DUSP1/MKP-1 expression” value [8] of the same compound?
Its value is “override the effects”.

And the “activation (phosphorylation) of ERK, JNK/SAPK and p38” value [9]?
The value was “activated all three kinases”.

And the “cell death in pre-B-ALL cells” value [10]?
Its value is “selectively induced cell death”.

And the “necrosis (% PI positive cells)” value [6]?
The value was “Necrosis was reduced”.

What about the GI50 [11] of the same compound?
Its GI50 is 1.84 µM.

And the “hepatocyte toxicity, cell death” value [5, 13]?
Its value is “caused cell death”.

What about the EC50 ([7]; Homo sapiens) of the same compound?
Its EC50 is 20 µM.

And the nuclear morphology ([12]; BCI and BCI-215 at 22 μM)?
The nuclear morphology was “shrunken, condensed nuclei that resembled pyknosis”.

And the IC50 ([12]; induction of phospho-ERK, read-out: IC50 ERK phosphorylation)?
The IC50 was 8.59 µM.

And the IC50 ([12]; read-out: IC50 Caspase-3 cleavage)?
Its IC50 is 9.17 µM.

What about the IC50 ([12]; read-out: IC50 Nuclear condensation) of the same compound?
Its IC50 is 12.8 µM.

Which “published concentration reported to inhibit cellular MAPK activity” value [2] does the source give for `C[S+]([O-])c1ccc(-c2nc(-c3ccncc3)c(-c3ccc(F)cc3)[nH]2)cc1` (centres unmarked) [SB203580] here?
The value was 10 µM.

And the “reversal of BCI-215-induced cell loss, nuclear morphology changes and apoptosis” value [3]?
Its value is “partially reversed”.

— patent US20190358176A1, “METHODS OF SENSITIZING CANCER CELLS TO IMMUNE CELL KILLING” (University of Pittsburgh - of the Commonwealth System of …, priority 2017, published 2019)
